Reference: patent publication US20190136188A1, “4HPR AND ITS USE IN THE CULTURING OF HEMATOPOIETIC STEM CELLS” (UNIVERSITY HEALTH NETWORK, priority 2016, published 2019)

What was measured:
sorted HSC, MPP or GMP = test: Colony forming assay (CFC) in methylcellulose; format: cell-based, human
Method: (A) Dose response of varying [4HPR] in CB at day 3 post-treatment showing 2 uM 4HPR gives the relative half maximal number of viable cells compared to control. All experiments following are at this 4HPR concentration unless otherwise indicated. […] (C) LC/MS was used to profile the ceramide (Cer), dihydroceramide (dhCer), sphingosine (sph), dihydrosphingosine (dhSph), S1P and dihydro-S1P (dhS1P) levels in lin− CB cells cultured for 8 days with control or 4HPR (n=2). […] (D) HSC, MPP, or GMP were sorted into methylcellulose for CFC assays in the presence of control or 4HPR and colonies were blindly scored following 10-11 days for (D) colonies/100 cells and ((E) colony distribution are shown (n=7). (F) Flow cytometry for erythroid (GlyA+) and monocytic (CD14+) markers in live cells from pooled CFC colonies were scored (n=6). (F) Relative number of colonies from CFC assays comparing the effect of 4HPR or ATRA (n=3) on sorted HSC, MPP or GMP. […]
(A) Representative flow cytometry analysis of the primitive hierarchy within the CD34+ fraction of day 8 cultured lin− CB cells after the indicated treatments for CD90 and CD45RA, n=4. B) The distribution of cultured CD34+CD90+CD45RA− (cHSC), CD34+CD90−CD45RA− (cMPP), and […] for the indicated conditions at day 8 of ex vivo culture following CD34 enrichment. Statistical significance assayed through unpaired t-test relative to vehicle control (Ctrl). The relative number of colonies resulting from (C) HSC or (D) MPP grown in methylcellulose CFC assays in the presence of vehicle control (−) or the indicated combination of 2 uM 4HPR, or 35 nM UM171 or 0.5 uM SR1 at 10 days. Statistical significance is calculated via unpaired t-test relative to ctrl (black) or to the presence of absence of 4HPR treatment for UM171 or SR1.
However, the functional consequence of 4HPR treatment on human cord blood primitive cells is unknown. A dose titration of 4HPR was performed on lineage-depleted CB (lin-CB) cells and 2 uM was calculated to give half maximal cell viability at 3 days post-treatment compared to vehicle control (ctrl), a concentration reported in cell lines to antagonize DEGS1 enzymatic function, and used for all subsequent experiments unless otherwise indicated (FIG. 1A). […] Next, we utilized the colony forming assay (CFC) for in vitro progenitor function to determine if 4HPR treatment alters functional output from isolated populations of CB HSPC. […] This is unsurprising as retinoic acid signaling is a potent differentiation signal in hematopoietic cells. Thus, 4HPR inhibition of sphingolipid homeostasis selectively enhances cloning efficiency in human HSC.
Given the CD34 compartment where functional HSC should reside following ex vivo expansion is critical to blood production, we asked if there were immunophenotypic alterations following 4HPR treatment. StemRegenin-1 (SR1) or UM171 are two molecules whose action on CB has been reported to expand CD34+ cells dramatically and lead to increase reconstitution in xenotransplantation (Fares, et al Science, 2014: Boitano, Science, 2010). We sought to ask if limiting CD34+ expansion with 4HPR treatment is synergistic with these known agonists of CB ex vivo expansion. Lin− CB were cultured with these 3 small molecules alone or in combination for 8 days and the CD34 compartment was isolated and analyzed by flow cytometry further with CD90 and CD45RA to look at immunophenotypic cultured HSC (cHSC), MPP (cMPP) and committed progenitors (cProg). These populations were sorted from lin-CB at […] following expansion and transplanted into NSG mice for 16 weeks to ascertain that cProg cells are committed progenitors, while cHSC and cMPP retain multipotency following culture (FIG. 8A, B). […]

lin- CB cells = test: RNA-sequencing gene set enrichment; format: cell-based, human; settings: 4HPR vs Ctrl
Description: RNA from 3 pools of Lin− CB cells treated with vehicle control, 4HPR, UM171+SR1 or the triple combination of 4HPR+UM171+SR1 for 2 days were subjected to RNA-sequencing without amplification on the Illumina HiSeq 2500. (A) Functional enrichment map of gene sets enriched (red) by 4HPR treatment including or enriched by Ctrl treatment (blue) at day 2.
To elucidate the genetic pathways enriched by 4HPR treatment in human CB that may contribute to preserving HSC function in ex vivo expansion alone or in combination with UM171 and SR1, we performed RNA-sequencing of 3 pools of lin-CB at day 2 and day 4 following treatment with all four treatment groups. To avoid amplification bias, RNA-seq was performed on samples without amplification. […] The latter is known to be regulated by autophagy (Singh, Nature, 2009).

[1] = test system: lineage-depleted CB (lin-CB) cells; test: Dose titration of 4HPR, cell viability; format: cell-based; settings: Homo sapiens, 72 h, 3 days post-treatment, read-out: concentration giving half maximal cell viability compared to vehicle control
Method: (A) Dose response of varying [4HPR] in CB at day 3 post-treatment showing 2 uM 4HPR gives the relative half maximal number of viable cells compared to control. All experiments following are at this 4HPR concentration unless otherwise indicated. […] (C) LC/MS was used to profile the ceramide (Cer), dihydroceramide (dhCer), sphingosine (sph), dihydrosphingosine (dhSph), S1P and dihydro-S1P (dhS1P) levels in lin− CB cells cultured for 8 days with control or 4HPR (n=2). […] (D) HSC, MPP, or GMP were sorted into methylcellulose for CFC assays in the presence of control or 4HPR and colonies were blindly scored following 10-11 days for (D) colonies/100 cells and ((E) colony distribution are shown (n=7). (F) Flow cytometry for erythroid (GlyA+) and monocytic (CD14+) markers in live cells from pooled CFC colonies were scored (n=6). (F) Relative number of colonies from CFC assays comparing the effect of 4HPR or ATRA (n=3) on sorted HSC, MPP or GMP.
However, the functional consequence of 4HPR treatment on human cord blood primitive cells is unknown. […]

SMILES: CC1=C(/C=C/C(C)=C/C=C/C(C)=C/C(=O)Nc2ccc(O)cc2)C(C)(C)CCC1 [4HPR, N-(4hydroxyphenyl)retinamide]
- relative cloning efficiency from HSC (sorted HSC, MPP or GMP; 2 uM 4HPR in combination with either UM171 or SR1, to levels similar to 4HPR alone): increased relative cloning efficiency from HSC
- colony distribution (colony type) (sorted HSC, MPP or GMP; HSC and MPP samples, 2 uM 4HPR): more likely to be granulocyte-macrophage (GM) colonies
- increase of colony output over control treatment (sorted HSC, MPP or GMP; HSC, 2 uM 4HPR, colonies scored after 10-11 days): 50%
- increase of colony output over control treatment (sorted HSC, MPP or GMP; MPP or GMP, 2 uM 4HPR): but not MPP or GMP
- myeloid (CD14) and erythroid (GlyA) output of cells from CFC assays (sorted HSC, MPP or GMP; flow cytometry of pooled CFC colonies, 2 uM 4HPR): enhances myeloid output at the expense of erythroid differentiation
- ER stress and UPR gene sets (lin- CB cells): upregulates ER stress and UPR gene sets
- autophagy gene sets (lin- CB cells): enriched for autophagy gene sets including mitophagy
- ceramide/sphingolipid biosynthesis gene sets (lin- CB cells): enrichment of ceramide/sphingolipid biosynthesis gene sets
- cholesterol/sterol biosynthetic pathways (lin- CB cells): decrease in cholesterol/sterol biosythetic pathways
- IC50 [1]: 2000 nM
